Tested on: Transport facilitation protein genes
Assay: DNA chip mRNA expression in yeast, transport facilitation protein genes (Table 5)
Assay type: cell-based, Saccharomyces cerevisiae S288C
In short: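 Expression change after 2 h toxicant exposure (growth-inhibiting, sub-lethal) of log-phase S. cerevisiae S288C at 25° C. Oligo-dT-purified mRNA was labeled with Cy3-dUTP or Cy5-dUTP and hybridized >12 h at 65° C. to a genome-wide chip; ratio of scanned fluorescence to control.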

Cl[C@H]1[C@H](Cl)[C@@H](Cl)[C@@H](Cl)[C@H](Cl)[C@H]1Cl [(7), γ-hexachlorocyclohexane]
The level of expressed mRNA in the presence of chemical substance/The level of expressed mRNA in the absence of chemical substance (yeast gene YBL030C): 0.9
The level of expressed mRNA in the presence of chemical substance/The level of expressed mRNA in the absence of chemical substance (yeast gene YBL099W): 0.9
The level of expressed mRNA in the presence of chemical substance/The level of expressed mRNA in the absence of chemical substance (yeast gene YBR052C): 3.0
The level of expressed mRNA in the presence of chemical substance/The level of expressed mRNA in the absence of chemical substance (yeast gene YBR127C): 0.9
The level of expressed mRNA in the presence of chemical substance/The level of expressed mRNA in the absence of chemical substance (yeast gene YBR132C): 1.1
The level of expressed mRNA in the presence of chemical substance/The level of expressed mRNA in the absence of chemical substance (yeast gene YBR207W): 4.3
The level of expressed mRNA in the presence of chemical substance/The level of expressed mRNA in the absence of chemical substance (yeast gene YBR293W): 0.9
The level of expressed mRNA in the presence of chemical substance/The level of expressed mRNA in the absence of chemical substance (yeast gene YBR294W): 1.1
The level of expressed mRNA in the presence of chemical substance/The level of expressed mRNA in the absence of chemical substance (yeast gene YBR295W): 1.6
The level of expressed mRNA in the presence of chemical substance/The level of expressed mRNA in the absence of chemical substance (yeast gene YBR298C): 1.7
The level of expressed mRNA in the presence of chemical substance/The level of expressed mRNA in the absence of chemical substance (yeast gene YCL025C): 0.7
The level of expressed mRNA in the presence of chemical substance/The level of expressed mRNA in the absence of chemical substance (yeast gene YCL038C): 1.5
The level of expressed mRNA in the presence of chemical substance/The level of expressed mRNA in the absence of chemical substance (yeast gene YCR024C-A): 0.8
The level of expressed mRNA in the presence of chemical substance/The level of expressed mRNA in the absence of chemical substance (yeast gene YCR037C): 1.0
The level of expressed mRNA in the presence of chemical substance/The level of expressed mRNA in the absence of chemical substance (yeast gene YCR098C): 1.2
The level of expressed mRNA in the presence of chemical substance/The level of expressed mRNA in the absence of chemical substance (yeast gene YDL128W): 0.9
The level of expressed mRNA in the presence of chemical substance/The level of expressed mRNA in the absence of chemical substance (yeast gene YDL198C): 1.0
The level of expressed mRNA in the presence of chemical substance/The level of expressed mRNA in the absence of chemical substance (yeast gene YDL210W): 0.8
The level of expressed mRNA in the presence of chemical substance/The level of expressed mRNA in the absence of chemical substance (yeast gene YDL245C): 1.2
The level of expressed mRNA in the presence of chemical substance/The level of expressed mRNA in the absence of chemical substance (yeast gene YDR038C): 0.7
The level of expressed mRNA in the presence of chemical substance/The level of expressed mRNA in the absence of chemical substance (yeast gene YDR039C): 0.8
The level of expressed mRNA in the presence of chemical substance/The level of expressed mRNA in the absence of chemical substance (yeast gene YDR086C): 2.0
The level of expressed mRNA in the presence of chemical substance/The level of expressed mRNA in the absence of chemical substance (yeast gene YDR270W): 1.7
The level of expressed mRNA in the presence of chemical substance/The level of expressed mRNA in the absence of chemical substance (yeast gene YDR298C): 1.0
The level of expressed mRNA in the presence of chemical substance/The level of expressed mRNA in the absence of chemical substance (yeast gene YDR342C): 0.8
The level of expressed mRNA in the presence of chemical substance/The level of expressed mRNA in the absence of chemical substance (yeast gene YDR343C): 0.7
The level of expressed mRNA in the presence of chemical substance/The level of expressed mRNA in the absence of chemical substance (yeast gene YDR345C): 1.1
The level of expressed mRNA in the presence of chemical substance/The level of expressed mRNA in the absence of chemical substance (yeast gene YDR387C): 1.3
The level of expressed mRNA in the presence of chemical substance/The level of expressed mRNA in the absence of chemical substance (yeast gene YDR497C): 0.5
The level of expressed mRNA in the presence of chemical substance/The level of expressed mRNA in the absence of chemical substance (yeast gene YEL027W): 0.8
The level of expressed mRNA in the presence of chemical substance/The level of expressed mRNA in the absence of chemical substance (yeast gene YEL063C): 0.7
The level of expressed mRNA in the presence of chemical substance/The level of expressed mRNA in the absence of chemical substance (yeast gene YEL065W): 4.3
The level of expressed mRNA in the presence of chemical substance/The level of expressed mRNA in the absence of chemical substance (yeast gene YER053C): 2.8
The level of expressed mRNA in the presence of chemical substance/The level of expressed mRNA in the absence of chemical substance (yeast gene YFL011W): 0.8
The level of expressed mRNA in the presence of chemical substance/The level of expressed mRNA in the absence of chemical substance (yeast gene YFL041W): 3.4
The level of expressed mRNA in the presence of chemical substance/The level of expressed mRNA in the absence of chemical substance (yeast gene YFL050C): 0.8
The level of expressed mRNA in the presence of chemical substance/The level of expressed mRNA in the absence of chemical substance (yeast gene YFL054C): 1.1
The level of expressed mRNA in the presence of chemical substance/The level of expressed mRNA in the absence of chemical substance (yeast gene YGL006W): 1.3
The level of expressed mRNA in the presence of chemical substance/The level of expressed mRNA in the absence of chemical substance (yeast gene YGL008C): 1.4
The level of expressed mRNA in the presence of chemical substance/The level of expressed mRNA in the absence of chemical substance (yeast gene YGL104C): 1.2
The level of expressed mRNA in the presence of chemical substance/The level of expressed mRNA in the absence of chemical substance (yeast gene YGL167C): 1.2
The level of expressed mRNA in the presence of chemical substance/The level of expressed mRNA in the absence of chemical substance (yeast gene YGL255W): 1.0
The level of expressed mRNA in the presence of chemical substance/The level of expressed mRNA in the absence of chemical substance (yeast gene YGR055W): 0.6
The level of expressed mRNA in the presence of chemical substance/The level of expressed mRNA in the absence of chemical substance (yeast gene YGR065C): 2.4
The level of expressed mRNA in the presence of chemical substance/The level of expressed mRNA in the absence of chemical substance (yeast gene YGR082W): 0.9
The level of expressed mRNA in the presence of chemical substance/The level of expressed mRNA in the absence of chemical substance (yeast gene YGR096W): 0.9
The level of expressed mRNA in the presence of chemical substance/The level of expressed mRNA in the absence of chemical substance (yeast gene YGR138C): 0.7
The level of expressed mRNA in the presence of chemical substance/The level of expressed mRNA in the absence of chemical substance (yeast gene YGR191W): 0.7
The level of expressed mRNA in the presence of chemical substance/The level of expressed mRNA in the absence of chemical substance (yeast gene YGR197C): 1.3
The level of expressed mRNA in the presence of chemical substance/The level of expressed mRNA in the absence of chemical substance (yeast gene YGR224W): 0.4
